# Reference: patent publication US5770604A, “Aconitine compound and an antipyretic/analgesic/anti-inflammatory agent” (priority 1994, dated 1998)
# What was measured:
# Type in all cases: in vivo, mice (Std:ddY, male)
# [1] = tested on: pain threshold (tail-pressure); assay: Analgesic activity by the tail-pressure method (s.c.); conditions: mouse, 10 mg/10 ml at 10 ml/kg s.c., 1 hour after administration, mean ± standard error
# Procedure: (1) Measurement of Analgesic Activity by the Tail-Pressure Method
# Std:ddY Strain male mice (20-25 g) were fasted for one day before the experiment, and were used. After test compounds shown in Table 1 was formed to a salt with tartaric acid, this salt was dissolved in 0.9% physiological saline solutions at the rate of 10 mg/10 ml to give the test compoun d solution . As a control, 0.9% physiological saline solution was used. A tail-pressure apparatus was used in this experiments. Before the administration of test compounds, the pain threshold was measured twice at intervals of 30 minutes and those mice indicating a pain threshold of 50 to 100 mmHg were selected and used. The pain threshold of each mouse was measured at 1 hour after test compound solution mentioned above was administered at 10 ml/kg, s.c. 0.9% Physiological saline solution as a control was administered at 10 ml/kg, s.c . The results were described as an inhibition rate (%) obtained from the following equation. Cutoff level of pressure was defined to be 230 mmHg for the prevention of the damage of mouse tail.
# Inhibition rate (%)=(A-B)×100/(C-B)
# A: Pain threshold (mmHg) after the administration of test compound solution
# B: Pain threshold (mmHg) before the administration of test compound solution
# C: Cutoff pressure (230 mmHg)
# [2] = tested on: pain threshold (tail-pressure); assay: Tail-pressure method, experiment combined with morphine administration; conditions: for Inhibition rate: mean ± standard error, n = 7
# Procedure: (3) Experiment Combined with Morphine Administration
# Std:ddY Strain male mice (20-25 g) were fasted for one day before the experiment, and were used. In this experiment, the tartaric acid salt of a compound of number (2) in Table 1 and morphine hydrochloride were used. The tartaric acid salt of a compound of number (2) was dissolved in 0.9% physiological saline solution at the rate of 7 mg/10 ml. Morphine hydrochloride was dissolved in 0.9% physiological saline solution at the rates of 5 mg/2 ml, 3 mg/2 ml and 1 mg/2 ml. As a control, 0.9% phisiological saline solution was used. A tail-pressure apparatus was used in this experiments. Before the administration of test compounds, the pain threshold was measured twice at intervals of 30 minutes and those mice indicating a pain threshold of 50 to 100 mmHg were selected and used. Mice was divided in the following four groups, (i) control group, (ii) the administration group of the tartaric acid salt of a compound of number (2), (iii) the administration group of morphine hydrochloride and (iv) the combined administration group with the tartaric acid salt of a compound of number (2) and morphine hydrochloride. In the administration group of the tartaric acid salt of a compound of number (2), 0.9% physiological saline solution of this tartaric acid salt mentioned above was injected s.c. at the rate of 10 ml/kg and, 30 minutes later, 0.9% physiological saline solution was injected i.v. at the rate of 2 ml/kg. In the administration group of morphine hydrochloride, 0.9% physiological saline solution was injected s.c. at the rate of 10 ml/kg and, 30 minutes later, the above physiological saline solution of morphine hydrochloride was injected i.v. at the rate of 2 ml/kg. In the combined administration group with the tartaric acid salt of a compound of number (2) and morphine hydrochloride,the above physiological saline solution of the tartaric acid salt of a compound of number (2) was injected s.c. at the rate of 10 ml/kg and, 30 minutes later, the above physiological saline solution of morphine hydrochloride was injected i.v. at the rate of 2 ml/kg. In control group, 0.9% physiological saline solution was injected s.c. at the rate of 10 ml/kg and, 30 minutes later, 0.9% physiological saline solution was injected i.v. at the rate of 2 ml/kg. Each pain threshold was measured 10, 20 and 30 minutes after an intravenous injection. The results were described in Table 9 as an inhibition rate (%) indicating in the preceding paragraph (1).
# [3] = tested on: pain threshold (tail-pressure); assay: Tail-pressure method, experiment combined with morphine antagonist (levallorphan); conditions: 10 mg/kg i.v., mean ± standard error
# Procedure: (4) Experiment Combined with Morphine Antagonist
# Std:ddY Strain male mice (20-25 g) were fasted for one day before the experiment, and were used. In this experiment, the tartaric acid salt of a compound of number (2) in Table 1, morphine hydrochloride and levallorphan hydrochloride of an opioid antagonist were used. The tartaric acid salt of a compound of number (2) was dissolved in 0.9% physiological saline solution at the rate of 10 mg/2 ml. Morphine hydrochloride was dissolved in 0.9% physiological saline solution at the rate of 10 mg/2 ml. Levallorphan hydrochloride was dissolved in 0.9% physiological saline solution at the rate of 1 mg/10 ml. As a control, 0.9% physiological saline solution was used. A tail-pressure apparatus was used in this experiments. Before the administration of levallorphan hydrochloride, the pain threshold was measured twice at intervals of 30 minutes and those mice indicating a pain threshold of 50 to 100 mmHg were selected and used. Levallorphan hydrochloride solution mentioned above was administered s.c. at the rate of 10 ml/kg and, 30 minutes later, the above tartaric acid salt solution compound of number (2) or morphine hydrochloride solution was injected i.v. at the rate of 2 ml/kg, respectively. Each pain threshold was measured 10, 20 and 30 minutes after an intravenous injection. In control group, 0.9% physiological saline solution was injected i.v. at the rate of 2 ml/kg at 30 minutes after s.c. administration at 10 ml/kg of 0.9% physiological saline solution. In the single administration group of levallorphan hydrochloride, levallorphan hydrochloride solution mentioned above was administered s.c. at the rate of 10 ml/kg and, 30 minutes later, 0.9% physiological saline solution was injected i.v. at the rate of 2 ml/kg. The results were described in Table 10 as an inhibition rate (%) indicating in the preceding paragraph (1).
structure (smiles),measurement,setting,value
"CCN1CC2(COC)C(O)CC(OC)C34C5CC6(O)C(OC)C(OC(C)=O)C(O)(C5C6OC(=O)c5ccc(Cl)cc5)C(C(OC)C23)C14 (centres unmarked) [(2), 15-O-acetyl-14-O-p-chlorobenzoylaconine]",Inhibition rate (tail-pressure method),[1],43 ± 10%
same,Inhibition rate,"[2]; compound (2) 7 mg/kg s.c. alone (morphine 0), 10 min after i.v. injection",30 ± 11%
same,Inhibition rate,"[2]; compound (2) 7 mg/kg s.c. alone (morphine 0), 20 min after i.v. injection",35 ± 12%
same,Inhibition rate,"[2]; compound (2) 7 mg/kg s.c. alone (morphine 0), 30 min after i.v. injection",37 ± 11%
same,Inhibition rate,"[2]; compound (2) 7 mg/kg s.c. combined with morphine 1 mg/kg i.v., 10 min",31 ± 12%
same,Inhibition rate,"[2]; compound (2) 7 mg/kg s.c. combined with morphine 1 mg/kg i.v., 20 min",36 ± 10%
same,Inhibition rate,"[2]; compound (2) 7 mg/kg s.c. combined with morphine 1 mg/kg i.v., 30 min",32 ± 7%
same,Inhibition rate,"[2]; compound (2) 7 mg/kg s.c. combined with morphine 3 mg/kg i.v., 10 min",47 ± 8%
same,Inhibition rate,"[2]; compound (2) 7 mg/kg s.c. combined with morphine 3 mg/kg i.v., 20 min",50 ± 9%
same,Inhibition rate,"[2]; compound (2) 7 mg/kg s.c. combined with morphine 3 mg/kg i.v., 30 min",38 ± 12%
same,Inhibition rate,"[2]; compound (2) 7 mg/kg s.c. combined with morphine 5 mg/kg i.v., 10 min",73 ± 13%
same,Inhibition rate,"[2]; compound (2) 7 mg/kg s.c. combined with morphine 5 mg/kg i.v., 20 min",77 ± 9%
same,Inhibition rate,"[2]; compound (2) 7 mg/kg s.c. combined with morphine 5 mg/kg i.v., 30 min",78 ± 9%
same,"effect on the analgesic effect of morphine, in words","[2]; mouse, compound s.c., morphine i.v.",greatly potentiated the analgesic effect of morphine
same,Inhibition rate,"[3]; with levallorphan 1 mg/kg s.c. 30 minutes before, 10 min",86 ± 25%
same,Inhibition rate,"[3]; with levallorphan 1 mg/kg s.c. 30 minutes before, 20 min",77 ± 14%
same,Inhibition rate,"[3]; with levallorphan 1 mg/kg s.c. 30 minutes before, 30 min",67 ± 22%
same,Inhibition rate,"[3]; without levallorphan, 10 min",85 ± 15%
same,Inhibition rate,"[3]; without levallorphan, 20 min",80 ± 20%
same,Inhibition rate,"[3]; without levallorphan, 30 min",65 ± 21%
